This passage reports IC50 results from patent US20230031406A1, “COMPOUNDS AND COMPOSITIONS FOR TREATING CONDITIONS ASSOCIATED WITH NLRP ACTIVITY” (Novartis AG, priority 2018, published 2023).

This test relates to PMA-differentiated THP-1 cells. The experiment in a line: IL-1β production in PMA-differentiated THP-1 cells stimulated with gramicidin (hTHP-1 assay containing 2% fetal bovine serum; Procedures 1 and 2). The class given is cell-based, human. The following applies: 2% fetal bovine serum. The gist of the method: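 Human monocytic THP-1 cells, matured overnight with PMA at 20 ng/ml, are seeded in low-serum (2% FBS) RPMI. Test compounds, at final concentrations from 100 down to 0.0017 μM, precede gramicidin (5 μM, 2 h) by one hour. Released IL-1β is then determined by HTRF.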

[1] abbreviates: Table B1, class symbols, read-out: Average IC50 of compounds in hTHP-1 assay: hTHP-1 IC50.
[2] abbreviates: Homo sapiens, THP-1, Table B1, class symbols, read-out: Average IC50 of compounds in hTHP-1 assay: hTHP-1 IC50.
[3] abbreviates: Table B2, class symbols, read-out: hTHP-1 IC50.
Where [4] appears, read: Table B4, class symbols, read-out: hTHP-1 IC50.
[5] abbreviates: Homo sapiens, THP-1, Table B2, class symbols, read-out: hTHP-1 IC50.
[6] abbreviates: Homo sapiens, THP-1, Table B2, numeric bounds, read-out: hTHP-1 IC50.

The structures appear in SMILES notation. Like-named read-outs stand apart in the source and are kept apart here.

For the molecule `CC1CCc2c1nc1c(c2NC(=O)N=S(N)(=O)c2sc(C(C)(C)O)nc2CO)CCC1` (single isomer, unassigned) [Compound 168b, (R,R/S) or (S,R/S)-4-(hydroxymethyl)-2-(2-hydroxypropan-2-yl)-N′-((3-methyl-1,2,3,5,6,7-hexa-hydrodicyclopenta[b,e]py-ridin-8-yl)carbamoyl)thia-zole-5-sulfonimidamide], the IC50 (usually the midpoint of a concentration-inhibition curve) under setting [1] was in the range of 0.2 to 1 µM.

As for `Cc1nc(C(C)(C)O)ccc1S(N)(=O)=NC(=O)Nc1c2c(nc3c1CCC3)CCC2` (single isomer, unassigned) [Compound 157b, (R) or (S)-N′-((1,2,3,5,6,7-hexahydrodicyclo-penta[b,e]pyridin-8-yl)carbamoyl)-6-(2-hydroxypropan-2-yl)-2-methylpyridine-3-sulfonimidamide], the IC50 under setting [2] was 5 to 30 µM.

Regarding `CC(C)c1csc(S(N)(=O)=NC(=O)Nc2c3c(nc4c2CCC4)CCC3)c1` (single isomer, unassigned) [Compound 173b, (S) or (R)-N′-((1,2,3,5,6,7-hexahydrodicyclo-penta[b,e]pyridin-8-yl)carbamoyl)-4-isopropylthiophene-2-sulfonimidamide], the IC50 (Homo sapiens, THP-1, Table B1, numeric bounds, read-out: Average IC50 of compounds in hTHP-1 assay: hTHP-1 IC50) is > 20 µM.

Consider `CC(C)c1nc(CO)c(S(N)(=O)=NC(=O)Nc2c3c(nc4c2CCC4(C)C)CCC3)s1` (single isomer, unassigned) [Compound 680a, (S) or (R)-N′-((3,3-dimethyl-1,2,3,5,6,7-hexahydrodicyclopenta [b,e]pyridin-8-yl)carbamoyl)-4-(hydroxymethyl)-2-isopropylthiazole-5-sulfonimidamide], for which, under setting [3], the IC50 was 5 to 30 µM.

As to `CCn1cc(F)c(S(N)(=O)=NC(=O)Nc2c3c(nc(C(F)(F)F)c2-c2ccccc2F)CCC3)n1` (single isomer, unassigned) [Example 779, (R) or (S)-1-ethyl-4-fluoro-N′-((3-(2-fluorophenyl)-2-(trifluoromethyl)-6,7-dihydro-5H-cyclopenta[b]pyridin-4-yl)carbamoyl)-1H-pyrazole-3-sulfonimidamide], under setting [4], the IC50 lay in the range of 0.008 to 0.04 µM.

Turning to `CNS(=O)(=NC(=O)Nc1c2c(nc3c1CCC3)CCC2)c1ccc(CN(C)C)cc1` (single isomer, unassigned) [Compound 120b, (S) or (R)-4-((dimethylamino)methyl)-N′-((1,2,3,5,6,7-hexahydro-dicyclopenta[b,e]pryidin-8-yl)carbamoyl)-N-methylbenzene-sulfonimidamide], the IC50 (Table B1, numeric bounds, read-out: Average IC50 of compounds in hTHP-1 assay: hTHP-1 IC50) was > 30 µM.

Take `CC(C)(O)c1ncc(S(N)(=O)=NC(=O)Nc2c3c(nc4c2CCC4F)CCC3)s1` (stereo not shown) [Compound 183, N′-((3-fluoro-1,2,3,5,6,7-hexahydrodicyclopenta[b,e]pyridin-8-yl)carbamoyl)-2-(2-hydroxypropan-2-yl)thiazole-5-sulfonimidamide]: under setting [1], the IC50 was in the range of 5 to 30 µM.

Consider `CC(C)(O)c1ncc(S(N)(=O)=NC(=O)Nc2c3c(nc4c2CCC4CF)CCC3)s1` (stereo not shown) [Compound 702, N′-((3-(fluoromethyl)-1,2,3,5,6,7-hexahydrodicyclopenta[b,e]pyridin-8-yl)carbamoyl)-2-(2-hydroxypropan-2-yl)thiazole-5-sulfonimidamide], for which the concentration for half-maximal inhibition (IC50) under setting [5] lay within 1 to 5 µM.

In the case of `CC(C)n1cc(CO)c(S(N)(=O)=NC(=O)Nc2c3c(nc4c2CCC4(C)C)CCC3)n1` (single isomer, unassigned) [Compound 682a, (S) or (R)-N′-((3,3-dimethyl-1,2,3,5,6,7-hexahydrodicyclopenta [b,e]pyridin-8-yl)carbamoyl)-4-(hydroxymethyl)-1-isopropyl-1H-pyrazole-3-sulfonimidamide], the IC50 under setting [6] is > 30 µM.

With `Cc1sc(S(N)(=O)=NC(=O)Nc2c3c(nc4c2CCC4(C)C)CCC3)cc1C(C)(C)O` (single isomer, unassigned) [Compound 169a, (S) or (R)-N′-((3,3-dimethyl-1,2,3,5,6,7-hexahydro-dicyclopenta[b,e]pyridin-8-yl)carbamoyl)-4-(2-hydroxypropan-2-yl)-5-methylthiophene-2-sulfonimidamide], under setting [1], the IC50 was 5 to 30 µM.

For `CC(C)c1c(-c2ccccc2)nc2c(c1NC(=O)N=S(N)(=O)c1cnc(C(C)(C)O)s1)CCC2` (single isomer, unassigned) [Compound 145a, (R) or (S)-2-(2-hydroxy-propan-2-yl)-N′-((3-isopropyl-2-phenyl-6,7-dihydro-5H-cyclopenta[b]pyridin-4-yl)carbamoyl)thiazole-5-sulfonimidamide], the IC50 under setting [1] was in the range of 0.2 to 1 µM.

Consider `Cc1c(C2CC2)nc(C2CC2)c(C)c1NC(=O)N=S(N)(=O)c1cc(C(C)(C)O)cs1` (single isomer, unassigned) [Compound 612a, (S) or (R)-N′-((2,6-dicyclopropyl-3,5-dimethylpyridin-4-yl)carbamoyl)-4-(2-hydroxypropan-2-yl)thiophene-2-sulfonimidamide], for which the IC50 under setting [6] was > 30 µM.

In the case of `NS(=O)(=NC(=O)Nc1c2c(nc3c1CCC31CC1)CCC2)c1ccn(C(F)F)n1` (stereo not shown) [Compound 180, 1-(difluoromethyl)-N′-((1′,5′,6′,7′-tetrahydro-2′H-spiro[cyclopropane-1,3′-dicyclopenta[b,e]pyridin]-8′-yl)carbamoyl)-1H-pyrazole-3-sulfonimidamide], under setting [2], the IC50 lay in the range of 1 to 5 µM.

As for `CC(C)(O)c1nc(CO)c(S(N)(=O)=NC(=O)Nc2c3c(nc4c2CCC4(C)C)CCC3)s1` (single isomer, unassigned) [Compound 121a, (R) or (S)-N′-((3,3-dimethyl-1,2,3,5,6,7-hexahydro-dicyclopenta[b,e]pyridin-8-yl)carbamoyl)-4-(hydroxymethyl)-2-(2-hydroxypropan-2-yl)thiazole-5-sulfonimidamide], the IC50 under setting [1] was in the range of 0.04 to 0.2 µM.

As to `COC(C)(C)c1nc(CO)c(S(N)(=O)=NC(=O)Nc2c3c(nc4c2CCC4(C)C)CCC3)s1` (stereo not shown) [Compound 648, N′-((3,3-dimethyl-1,2,3,5,6,7-hexahydrodicyclopenta[b,e]pyridin-8-yl)carbamoyl)-4-(hydroxymethyl)-2-(2-methoxypropan-2-yl)thiazole-5-sulfonimidamide], the IC50 under setting [5] was in the range of 1 to 5 µM.

Consider `N[S@@](=O)(=NC(=O)Nc1c2c(nc(C3CC3)c1C1CC1)CCC2)c1ccn(C(F)F)n1` [Compound 728b], for which the IC50 under setting [5] was 0.2 to 1 µM.

On to `CC1CCc2c1nc1c(c2NC(=O)N=S(N)(=O)c2sc(C(C)(C)O)cc2F)CCC1` (single isomer, unassigned) [Compound 103aa, (S,R) or (S,S)-3-fluoro-5-(2-hydroxypropan-2-yl)-N′-((3-methyl-1,2,3,5,6,7-hexahydrodicyclo-penta[b,e]pyridin-8-yl)carbamoyl)thiophene-2-sulfonimidamide], for which, under setting [1], the IC50 was in the range of 1 to 5 µM.

For the molecule `CCn1ccc(S(N)(=O)=NC(=O)Nc2c3c(nc4c2CC[C@H]4C)CCC3)n1` (stereo partly drawn) [Compound 634, 1-Ethyl-N′-(((R)-3-methyl-1,2,3,5,6,7-hexahydrodicyclopenta[b,e]pyridin-8-yl)carbamoyl)-1H-pyrazole-3-sulfonimidamide], the IC50 under setting [5] fell in the range of 0.04 to 0.2 µM.

As for `Cc1c(C(F)(F)F)nc2c(c1NC(=O)N=S(N)(=O)c1ccn(C)n1)CCC2` (stereo not shown) [Example 633, 1-Methyl-N′-((3-methyl-2-(trifluoromethyl)-6,7-dihydro-5H-cyclopenta[b]pyridin-4-yl)carbamoyl)-1H-pyrazole-3-sulfonimidamide], the IC50 (Homo sapiens, THP-1, Table B3, hTHP-1 assay, class symbols, read-out: IC50) lay in the range of 5 to 30 µM.

As to `Cc1c(C2CC2)nc2c(c1NC(=O)N=S(N)(=O)c1cc(C(C)(C)O)cs1)CCC2C` (single isomer, unassigned) [Compound 656b, (S, S) or (S, R) or (R, S) or (R, R)-N′-((2-Cyclopropyl-3,7-dimethyl-6,7-dihydro-5H-cyclopenta[b]pyridin-4-yl)carbamoyl)-4-(2-hydroxypropan-2-yl)thiophene-2-sulfonimidamide], under setting [3], the IC50 is 5 to 30 µM.

On to `Cc1c(C2CC2)nc2c(c1NC(=O)N=S(N)(=O)c1cnc(C(C)(C)O)s1)CCC2` (single isomer, unassigned) [Compound 124a, (S) or (R)-N′-((2-cyclopropyl-3-methyl-6,7-dihydro-5H-cyclopenta[b]pyridin-4-yl)carbamoyl)-2-(2-hydroxypropan-2-yl)thiazole-5-sulfonimidamide], for which, under setting [1], the IC50 lay in the range of 5 to 30 µM.

As to `CN(C)Cc1ccc(S(N)(=O)=NC(=O)Nc2c3c(nc4c2CCC4)CCC3)cc1` (stereo not shown) [Compound 130, 4-((dimethylamino)methyl)-N′-((1,2,3,5,6,7-hexahydrodicyclopenta[b,e]pyridin-8-yl)carbamoyl)benzenesulfonimidamide], the 50% inhibitory concentration (IC50) under setting [2] lay in the range of 5 to 30 µM.

On to `CCc1nc2c(c(NC(=O)N=S(N)(=O)c3sc(C(C)(C)O)cc3F)c1C1CC1)CCC2` (stereo not shown) [Compound 631, N′-((3-cyclopropyl-2-ethyl-6,7-dihydro-5H-cyclopenta[b]pyridin-4-yl)carbamoyl)-3-fluoro-5-(2-hydroxypropan-2-yl)thiophene-2-sulfonimidamide], for which the IC50 under setting [5] lay in the range of 0.04 to 0.2 µM.

As for `NS(=O)(=NC(=O)Nc1c2c(nc3c1CCC31CC1)CCC2)c1nn(C(F)F)cc1F` (stereo not shown) [Compound 719], the IC50 under setting [5] is 0.2 to 1 µM.

As for `Cc1c(C(F)(F)F)nc(C(F)(F)F)c(C)c1NC(=O)N=S(N)(=O)c1cc(C(C)(C)O)cs1` (single isomer, unassigned) [Example 755, (R) or (S)-N′-((3,5-dimethyl-2,6-bis(trifluoromethyl)pyridin-4-yl)carbamoyl)-4-(2-hydroxypropan-2-yl)thiophene-2-sulfonimidamide], the IC50 under setting [4] is 0.2 to 1 µM.
